Measurements published in PubChem BioAssay (NCI).
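Test compounds were applied to cells in 96-well plates for 48 hours at 5 doses. The concentration for 50% growth inhibition is given as GI50. TGI is the concentration that stops growth completely.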

How the values were obtained:
Assay in all cases: inhibition of tumour cell growth, NCI panel, 48 h
[1] = system: ACHN renal
[2] = system: HCT-116 colon
[3] = system: MCF7 breast
[4] = system: MOLT-4 leukemia
[5] = system: NCI-H460 lung
[6] = system: NCI-H522 lung
[7] = system: OVCAR-8 ovarian
[8] = system: SF-268 CNS
[9] = system: SF-295 CNS
[10] = system: SR leukemia

Structure (SMILES)	GI50 [1] [µM]	TGI [1] [µM]	GI50 [2] [µM]	TGI [2] [µM]	GI50 [3] [µM]	TGI [3] [µM]	GI50 [4] [µM]	TGI [4] [µM]	GI50 [5] [µM]	TGI [5] [µM]	GI50 [6] [µM]	TGI [6] [µM]	GI50 [7] [µM]	TGI [7] [µM]	GI50 [8] [µM]	TGI [8] [µM]	GI50 [9] [µM]	TGI [9] [µM]	GI50 [10] [µM]	TGI [10] [µM]
CC1(C)N=C(N)N=C(N)N1c1cccc(CCCCc2ccccc2)c1	3.22	19.7	0.0501	17	0.312	10.2	0.319	8.76	0.0493	11.4	0.691	13.7	0.262	16	0.0735	15	0.229	5.79	0.188	2.89
COc1cc2ccnc3c2c(c1OC)-c1ccc(=O)ccc1-3	19.3	44.6	5.25	34.5	14.9	> 100	3.6	18.7	20.7	> 100	23.4	71.3	13.4	58.8	39.1	> 100	23.2	67.8	2.95	21.4
O=c1oc2ccc(Cl)cc2c(=O)n1-c1cc(C(F)(F)F)cc(C(F)(F)F)c1	0.303	10.5	0.277	1.21	0.278	13.5	0.352	2.48	0.308	5.16	0.25	2.57	0.323	–	0.262	5.5	0.206	0.504	0.308	> 51
COc1cc2nc(N3CCCC3)nc(Nc3ccccc3)c2cc1OC	1.38	2.67	0.58	2.44	0.637	2.29	1.54	4.33	1.86	3.59	1.89	3.96	1.54	5.06	1.85	3.93	1.8	3.27	0.234	1.26
Cc1ccc(N=Nc2c(N)nn(-c3ccccc3)c2N)cc1	11.6	> 100	0.542	> 100	0.67	> 100	1.07	> 100	1.07	> 100	1	> 100	4.27	> 100	4.7	> 100	1.83	> 57.1	0.378	> 100
c1ccc(-c2nnc(Nc3ccc4c(c3)OCCO4)o2)c(NCc2ccncc2)c1	0.0784	14.4	0.0282	11.8	0.0904	> 38.8	0.0485	> 100	0.0313	15.2	< 0.01	0.86	0.0419	> 42.2	0.0696	> 67.6	0.0136	> 100	< 0.01	> 46.5
Cc1ncc(C(=O)Nc2ccc(CN3CCN(C)CC3)c(C(F)(F)F)c2)cc1C#Cc1cnc(N)c2ncccc12	0.063	1.65	0.218	2.4	1.61	4.36	0.0946	–	0.0869	2.15	1.05	3.96	1.1	4.86	0.417	3	1.26	10.6	0.472	–
O=C(NC(=S)NNC(=S)NNc1ccccc1)c1ccccc1	10.1	> 100	4.05	> 100	2.92	> 100	4.81	49.9	3.72	> 100	0.489	3.42	4.68	> 100	8.55	> 100	4.19	> 100	3.7	> 100
O=C(O)CCCSc1nc2ccccc2s1	–	> 100	–	> 100	–	> 100	–	> 100	–	> 100	–	> 100	–	> 100	–	> 100	–	> 100	–	> 100
N#Cc1cccc(/C=C(/C(=O)c2ccccc2)c2ccccc2)c1	2.47	5.76	3.06	11.3	3.85	15.9	3.19	23.4	3.85	19.6	2.35	6.95	2.97	25.5	4.3	17.2	4.23	17.1	2.94	> 100
O=C1OC(C2=CC(=O)c3ccccc3C2=O)C(Cl)=C1Cl (configuration not stated)	–	33.6	–	> 100	–	44.8	–	> 100	–	> 100	–	39.3	–	29.8	–	79.2	–	> 100	–	70.3
CNNC(=N\S(=O)(=O)c1cc(C(=O)Nc2ccc(Cl)cc2)c(Cl)cc1SCc1ccccc1)/N=C/c1ccc([N+](=O)[O-])s1	> 100	> 100	2.3	> 100	> 100	> 100	> 100	> 100	3.91	> 27.7	> 100	> 100	> 100	> 100	> 100	> 100	> 100	> 100	> 100	> 100
COc1cccc(-n2ncc3c(N/N=C/c4ccc(S(C)(=O)=O)cc4)ncnc32)c1	6.27	> 25	8.46	> 25	9.87	> 25	> 25	> 25	6.56	> 25	6.78	20.1	6.11	15.6	5.98	13.5	12.3	> 25	> 12.4	> 25
N#CSCc1c(Cl)cccc1Cl	5.14	> 100	2.92	> 39.3	3.27	> 100	–	–	4.29	> 53.4	2.07	6.33	4.8	> 100	4.9	> 65.5	16.2	> 91.4	–	> 24
COc1ccc(/C=C/C(=O)c2ccc3cc(OC)c(OC)cc3c2)cc1OC	3.81	> 100	2.64	> 100	2.69	12.1	3.07	9.53	3.35	12.5	2.48	7.99	2.56	7.89	4.45	22.6	–	–	1.69	> 100
Nc1ccn(C2CC(O)C(CO)O2)c(=O)n1 (configuration not stated)	> 5000	> 5000	> 5000	> 5000	> 5000	> 5000	> 5000	> 5000	> 5000	> 5000	> 5000	> 5000	> 5000	> 5000	> 5000	> 5000	> 5000	> 5000	> 5000	> 5000
CCN(CC)CCCOc1cc(O)c2c(=O)cc(-c3ccccc3)oc2c1	6.16	19	–	–	4.16	16.2	3.29	8.71	4.2	14.6	12.1	26.7	–	28.2	10.1	22.9	11.9	28.1	3.44	9.39
CCN(C(=O)CCl)C(C)(C)C(SSSC(c1ccc(Cl)cc1)C(C)(C)N(CC)C(=O)CCl)c1ccc(Cl)cc1 (configuration not stated)	4.78	16.9	4.47	18.5	5.09	21.9	4.46	13.9	7.34	20.9	2.06	3.87	10.9	24.1	10.5	23.9	2.99	8.93	2.32	5.15
Nc1c(C(=O)c2cccc(CCC3(O)CCCC3)c2)cnn1-c1ccc(F)cc1	> 21	> 25	18.5	> 25	9.65	> 25	10.2	> 25	20.5	> 25	> 19.4	> 25	11.4	> 25	> 18.5	> 25	9.4	> 25	13.6	> 25
CC(=O)OC1CCC2(C)C(CCC3C4CC=C(C(C)=O)C4(C)OC(=O)CC32)C1 (configuration not stated)	1.3	2.61	1.13	2.62	1.4	3.01	2.29	6.41	5.02	19.3	1.22	2.64	2.13	7.49	5.2	17.8	–	–	0.382	18.2
CC1=CC2=C(C(N)=O)C(=O)OC2(C)C(c2ccccc2)C1 (configuration not stated)	–	> 100	–	> 100	–	> 100	–	> 100	–	> 100	–	> 100	–	> 100	–	> 100	–	> 100	–	> 100
COC(=O)c1ccc2c(c1)C(=O)c1c-2n(CCCN)c(=O)c2cc([N+](=O)[O-])ccc12	< 0.01	0.204	0.0337	0.959	< 0.01	0.214	< 0.01	0.833	0.0434	1.1	< 0.0306	0.588	< 0.0344	0.864	< 0.0177	1.4	< 0.01	–	< 0.01	0.367
C/C1=C\C/C=C(\C)[C@H]2CC(CC/C(C)=C/CC1)[C@@](C)(CO)O2	> 100	> 100	44.5	> 100	26.7	77.7	23.5	> 100	74.4	> 100	23.3	> 100	> 100	> 100	80.6	> 100	59.3	> 100	14.6	43.8
ICCC(c1ccccc1)(c1ccccc1)c1ccccc1	12	24.8	2.55	13.5	10.6	26.7	2.57	8.97	–	–	8.35	22.7	11.4	25.5	4.4	16.8	2.02	5.07	1.93	5
O=C(OCC1OC(OC(=O)c2cc(O)c(O)c(OC(=O)c3cc(O)c(O)c(O)c3)c2)C(OC(=O)c2cc(O)c(O)c(OC(=O)c3cc(O)c(O)c(O)c3)c2)C(OC(=O)c2cc(O)c(O)c(OC(=O)c3cc(O)c(O)c(O)c3)c2)C1OC(=O)c1cc(O)c(O)c(OC(=O)c2cc(O)c(O)c(O)c2)c1)c1cc(O)c(O)c(OC(=O)c2cc(O)c(O)c(O)c2)c1 (configuration not stated)	12.3	32.8	21.9	> 50	13.2	34.7	41.3	> 50	4.14	36	8.71	29.7	25.6	> 50	7.21	31.3	8.65	22.9	21	> 50
O=Cc1ccc(Oc2c3ccccc3nc3occc23)cc1	–	–	15.3	28.7	13.8	32.2	6.89	24.4	20.2	48.2	49.5	> 100	18.3	66.2	15.5	40.8	14.4	36.8	16	44.7
